From ChEMBL document CHEMBL4689842, “EUbOPEN Chemogenomics Library wave 1” (2021)

Columns and labels:
Assay type in all cases: toxicity, cell-based
Fibroblast = assay: Incucyte cell viability with human fibroblast; conditions: 10 µM, compound concentration 10 uM
HEK-293T = assay: Incucyte cell viability with HEK293T; conditions: human, 10 µM, compound concentration 10 uM
U2OS = assay: Incucyte cell viability with U2OS; conditions: human, 10 µM, compound concentration 10 uM
[1] = 0 h, replicate number 1, timepoint 0 hours
[2] = 6 h, replicate number 1, timepoint 6 hours
[3] = 6 h, replicate number 2, timepoint 6 hours
[4] = 12 h, replicate number 1, timepoint 12 hours
[5] = 18 h, replicate number 1, timepoint 18 hours
[6] = 24 h, replicate number 1, timepoint 24 hours
[7] = 0 h, replicate number 2, timepoint 0 hours
[8] = 12 h, replicate number 2, timepoint 12 hours
[9] = 18 h, replicate number 2, timepoint 18 hours
[10] = 24 h, replicate number 2, timepoint 24 hours
Note: filed as whole numbers so only -1 and 0 and 1 occur.

| Compound | Growth Rate (Fibroblast; [1]) | Growth Rate (Fibroblast; [2]) | Growth Rate (Fibroblast; [4]) | Growth Rate (Fibroblast; [5]) | Growth Rate (Fibroblast; [6]) | Growth Rate (HEK-293T; [1]) | Growth Rate (HEK-293T; [7]) | Growth Rate (HEK-293T; [6]) | Growth Rate (U2OS; [1]) | Growth Rate (U2OS; [7]) | Growth Rate (U2OS; [2]) | Growth Rate (U2OS; [4]) | Growth Rate (U2OS; [5]) | Growth Rate (U2OS; [6]) | Growth Rate (HEK-293T; [2]) | Growth Rate (HEK-293T; [4]) | Growth Rate (HEK-293T; [5]) | Growth Rate (U2OS; [8]) | Growth Rate (Fibroblast; [9]) | Growth Rate (Fibroblast; [10]) | further results |
| --- | --- | --- | --- | --- | --- | --- | --- | --- | --- | --- | --- | --- | --- | --- | --- | --- | --- | --- | --- | --- | --- |
| CCOc1cc(N2CCC(O)CC2)ccc1Nc1ncc2c(n1)N(C)c1ccccc1C(=O)N2C | 1 | 1 | 1 | 1 | 1 | 0 | 1 | 1 | 0 | 1 | 0 | 1 | 1 | 1 |  |  |  |  |  |  | Growth Rate (Fibroblast; [3]): 0; Growth Rate (HEK-293T; [3]): 1; Growth Rate (HEK-293T; [8]): 1; Growth Rate (HEK-293T; [9]): 1; Growth Rate (HEK-293T; [10]): 0 |
| CS(=O)(=O)NC[C@H]1CC[C@H](Nc2nc3c(s2)CCSc2ccccc2-3)CC1 | 0 | 0 | 1 | 1 | 0 |  | 0 | 0 | 0 |  | 0 | 0 | 0 | 1 | 0 | 0 | 0 | 1 |  |  |  |
| CN(C)S(=O)(=O)c1ccc(NC(=S)N2CCC(C(O)(c3ccccc3)c3ccccc3)CC2)cc1 | 0 | 0 | 0 | 0 | 0 |  | 0 | 0 |  | 0 | 1 | 0 | 1 | 0 | 0 | 0 | 0 |  | 1 | 1 | Growth Rate (U2OS; [10]): 1 |
| Cc1nc(C(=O)N2CCC[C@H]2Cc2nnc(-c3ccccc3)o2)c(-c2ccccc2F)s1 | 1 | 0 | 0 | 1 | 0 |  | 0 | 0 |  |  | 0 | 0 | 1 | 0 | 0 | 0 | 0 |  |  | 1 | Growth Rate (U2OS; [10]): 1 |
| COc1ccc(Cn2ccc3ccc(C(=O)NO)cc32)cc1 | 0 |  |  | 1 | 1 | 0 | 1 |  | 0 | 1 | 0 | 1 | 1 | 0 |  |  |  | 0 | 0 |  | Growth Rate (Fibroblast; [3]): 1; Growth Rate (Fibroblast; [8]): 1 |
| COc1cc(-c2cn([C@H]3CCc4c(F)cccc4N(CC(F)(F)F)C3=O)nn2)ccc1-n1cnc(C)c1 | 0 | 0 | 1 | 1 | 1 | 0 | 1 | 1 | 0 |  | 0 | 0 | 0 | 0 | 0 | 0 | 1 | 1 | 0 | 0 | Growth Rate (Fibroblast; [8]): 0; Growth Rate (HEK-293T; [10]): 0; Growth Rate (U2OS; [3]): 1; Growth Rate (U2OS; [9]): 1; Growth Rate (U2OS; [10]): 1 |
| O=C(/C=C/N1C[C@H]2C[C@@H]1CN2c1ccccn1)c1ccccc1O |  | 1 | 1 | 1 | 1 | 0 | 1 |  | 0 |  | 0 | 1 | 0 | 0 |  |  |  | 0 |  |  | Growth Rate (Fibroblast; [7]): 0 |
| CCn1cc(-c2cccc(C(F)(F)F)c2)c2sc(C(=N)NC3CCS(=O)(=O)CC3)cc2c1=O |  | 0 | 0 | 0 | 0 |  |  | 0 |  | 0 | 1 | 0 | 0 | 0 | 0 | 0 | 0 |  |  | 1 | Growth Rate (U2OS; [9]): 1; Growth Rate (U2OS; [10]): 1 |
| CCC(=O)N1CCOc2c(cc(-c3ccc(OC)c(OC)c3)cc2OC[C@H]2CCCN(C)C2)C1 | 0 | 0 | 1 | 1 | 1 |  | 1 | 0 | 0 |  | 0 | 1 | 1 | 1 | 0 | 0 | 0 |  | 0 | 0 | Growth Rate (Fibroblast; [8]): 0; Growth Rate (HEK-293T; [9]): 1 |
| CNCCN1CCC(OCc2ccccc2)CC1 |  | 0 | 0 | 0 | 1 | 1 | 0 | 1 |  | 0 | 1 | 1 | 1 | 1 |  |  | 1 |  |  |  | Growth Rate (Fibroblast; [7]): 0; Growth Rate (Fibroblast; [3]): 1; Growth Rate (Fibroblast; [8]): 1; Growth Rate (HEK-293T; [3]): 1; Growth Rate (HEK-293T; [8]): 1 |
